Measured values published in patent US8853230B2, “Inhibitors of JAK” (Portola Pharmaceuticals, Inc., priority 2009, dated 2014).
pIC50: −log10 of the molar value.

Assays:
Type in all cases: biochemical
JAK3 = molecular target: T1, JAK3 (Homo sapiens, UniProt P52333); assay: Z'-LYTE kinase assay, JAK3 tyrosine phosphorylation activity
T1 construct: 5 μl of catalytic domain recombinant Kinase enzyme+Tyr peptide substrate (Invitrogen, Calif.); purchased Invitrogen
Protocol: (§1) JAK and TYK2 tyrosine phosphorylation activity is measured using the Z′-LYTE™ Technology developed by Invitrogen Corporation (Carlsbad, Calif.). For JAK1, JAK2 and JAK3 the Z′-LYTE™ Kinase Assay Kit-Tyr6 Peptide (part number PV4122) was used. For TYK2 the Z′-LYTE™ Kinase Assay Kit-Tyr6 Peptide (part number PV3192) was used. The Z′-LYTE™ biochemical assay employs a fluorescence resonance energy transfer (FRET) coupled-enzyme format and is based on the differential sensitivity of phosphorylated and non-phosphorylated peptides to proteolitic cleavage. The assay uses a synthetic peptide substrate that is labelled with a donor fluorophore (coumarin) and an acceptor fluorophore (fluorescein) that make up a FRET pair. In the primary reaction (the Kinase Reaction), the kinase transfers the γ-phosphate of ATP to a single tyrosine residue on the substrate, while the presence of a kinase inhibitor in the primary reaction suppresses phosphorylation. In the secondary reaction (the Development Reaction), a site-specific protease (the Development Reagent) is added. The development buffer quenches the Kinase Reaction, while the protease recognizes and cleaves non-phosphorylated Z′-LYTE™ peptide substrate. Cleavage disrupts FRET between the donor and acceptor fluorophores on the non-phosphoryleted substrate, while uncleaved, phosphorylated substrate maintains FRET.
(§2) To test the ability of candidate molecules to inhibit JAK tyrosine phosphorylation activity, molecules are reconstituted in 100% DMSO and serially diluted 1:10 in polypropylene v-bottom microtiter plates. The candidate molecules are then diluted 1:25 into kinase buffer and 2.5 μl transferred into duplicate wells of a 384 well low volume black microtiter assay plate (Corning, USA). The final DMSO concentration in the assay is 1%. The kinase reaction contains 2.5 μl of a candidate molecule, 5 μl of catalytic domain recombinant Kinase enzyme+Tyr peptide substrate (Invitrogen, Calif.) and 2.5 μl ATP (Invitrogen, Calif.). The kinase reaction is allowed to procede for 1 hour at room temperature. The protease reaction is initiated by the addition of 5 μl Development Reagent (Invitrogen, Calif.). After 1 hour incubation at room temperature the fluorescence is measured using a FlexStation plate reader (Molecular Devices, Sunnyvale, Calif.). The reader settings used are as follows: Fluorescence mode, endpoint, top read, excitation 400 nm, emission 445 nm and 520 nm, Auto Cutoff 435 nm and 515 nm, PMT sensitivity high, 6 reads per well. Inhibition of JAK activity is calculated as the percent phosphorylation of substrate in the presence of inhibitor compared to the percent phosphorylation of substrate in the absence of inhibitor. IC50's were derived using Xlfit 4.3 (IDBS, UK), 4 parameter logistic model 205: Y=(A+((B−A)/(1+((C/x)^D)))).

JAK1 = molecular target: T2, JAK1 (Homo sapiens, UniProt P23458); assay: Z'-LYTE kinase assay, JAK1 tyrosine phosphorylation activity; conditions: read-out: JAK 1 IC50
T2 construct: 5 μl of catalytic domain recombinant Kinase enzyme+Tyr peptide substrate (Invitrogen, Calif.); purchased Invitrogen
Protocol: as §1, §2

JAK2 = molecular target: T3, JAK2 (Homo sapiens, UniProt O60674); assay: Z'-LYTE kinase assay, JAK2 tyrosine phosphorylation activity
T3 construct: 5 μl of catalytic domain recombinant Kinase enzyme+Tyr peptide substrate (Invitrogen, Calif.); purchased Invitrogen
Protocol: as §1, §2

T3 sequence (O60674 849-1124 limits assumed): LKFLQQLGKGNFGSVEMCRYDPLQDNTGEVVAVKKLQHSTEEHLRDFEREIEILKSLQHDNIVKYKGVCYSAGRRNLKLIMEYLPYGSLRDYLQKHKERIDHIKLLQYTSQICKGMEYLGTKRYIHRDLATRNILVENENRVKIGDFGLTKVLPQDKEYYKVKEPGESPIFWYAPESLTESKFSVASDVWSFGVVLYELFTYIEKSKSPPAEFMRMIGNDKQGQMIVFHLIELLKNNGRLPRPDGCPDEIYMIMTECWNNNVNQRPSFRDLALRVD
T2 sequence (P23458 875-1153 limits assumed): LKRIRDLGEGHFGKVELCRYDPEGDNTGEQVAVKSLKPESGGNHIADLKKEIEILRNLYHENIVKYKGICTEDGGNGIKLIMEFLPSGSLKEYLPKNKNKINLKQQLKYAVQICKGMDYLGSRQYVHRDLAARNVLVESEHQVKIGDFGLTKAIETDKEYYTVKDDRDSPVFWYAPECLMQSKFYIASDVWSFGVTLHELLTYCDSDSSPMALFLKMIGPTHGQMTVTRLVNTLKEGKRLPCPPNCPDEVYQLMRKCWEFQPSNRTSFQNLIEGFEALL
T1 sequence (P52333 822-1111 limits assumed): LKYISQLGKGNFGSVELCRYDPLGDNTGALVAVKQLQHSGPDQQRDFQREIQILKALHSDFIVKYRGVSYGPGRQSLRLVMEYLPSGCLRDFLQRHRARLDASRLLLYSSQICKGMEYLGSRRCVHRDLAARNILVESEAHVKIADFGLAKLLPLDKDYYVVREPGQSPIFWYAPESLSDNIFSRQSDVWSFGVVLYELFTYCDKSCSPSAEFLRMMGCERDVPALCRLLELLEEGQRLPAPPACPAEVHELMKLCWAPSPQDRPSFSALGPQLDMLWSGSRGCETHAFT

| Structure (SMILES) | pIC50 (JAK3) | pIC50 (JAK1) | pIC50 (JAK2) |
| --- | --- | --- | --- |
| NC(=O)c1cnc(Nc2ccc(F)c(NC(=O)N3CCCC3)c2)nc1NCc1ccccc1F [Example 288, 2-(4-fluoro-3-(pyrrolidine-1-carboxamido)phenylamino)-4-(2-fluorobenzylamino)pyrimidine-5-carboxamide] | 8.00 to 9.00 |  |  |
| NC(=O)c1cnc(Nc2ccc(F)c(NC(=O)N3CCCC3)c2)cc1N[C@H](CO)c1ccccc1 [Example 313, (S)-6-(4-fluoro-3-(pyrrolidine-1-carboxamido)phenylamino)-4-(2-hydroxy-1-phenylethylamino)nicotinamide] | 7.00 to 8.00 | < 6.00 | < 6.00 |
| NC(=O)c1cnc(Nc2cccc(NC(=O)N3CC[C@H](F)C3)c2)nc1NCc1ccccc1 [Example 284, (S)-4-(benzylamino)-2-(3-(3-fluoropyrrolidine-1-carboxamido)phenylamino)pyrimidine-5-carboxamide] | > 9.00 |  |  |
| NC(=O)c1cnc(Nc2ccc(F)c(NC(=O)N3CCC3)c2)nc1NCc1ccccc1F [Example 290, 2-(3-(azetidine-1-carboxamido)-4-fluorophenylamino)-4-(2-fluorobenzylamino)pyrimidine-5-carboxamide] | 8.00 to 9.00 |  |  |
| CC(=O)Nc1cccc(Nc2ncc(C(N)=O)c(Nc3ccc(NC(=O)CC#N)cc3)n2)c1 [Example 301, 2-(3-acetamidophenylamino)-4-(4-(2-cyanoacetamido)-phenylamino)pyrimidine-5-carboxamide] | 8.00 to 9.00 |  |  |
| NC(=O)c1cnc(Nc2cccc(NC(=O)N3CC[C@@H](O)C3)c2)nc1NCc1ccccc1 [Example 282, (R)-4-(benzylamino)-2-(3-(3-hydroxypyrrolidine-1-carboxamido)phenylamino)pyrimidine-5-carboxamide] | > 9.00 |  |  |
| NC(=O)c1cnc(Nc2cccc(NC(=O)N3CCOCC3)c2)cc1NCc1cccc(F)c1 [Example 308, N-(3-(5-carbamoyl-4-(3-fluorobenzylamino)pyridin-2-ylamino)phenyl)morpholine-4-carboxamide] | 8.00 to 9.00 | 6.00 to 7.00 | 7.00 to 8.00 |
| CC(=O)Nc1cccc(Nc2cc(NCc3cccnc3)c(C(N)=O)cn2)c1 [Example 321, 6-(3-acetamidophenylamino)-4-(pyridin-3-ylmethylamino)nicotinamide] | 7.00 to 8.00 | 6.00 to 7.00 | 6.00 to 7.00 |
| CC(=O)Nc1cccc(Nc2cc(N[C@H](CO)c3ccccc3)c(C(N)=O)cn2)c1 [Example 316, (S)-6-(3-acetamidophenylamino)-4-(2-hydroxy-1-phenylethylamino)nicotinamide] | 7.00 to 8.00 | 6.00 to 7.00 | 6.00 to 7.00 |
| NC(=O)c1cnc(Nc2cccc(NC(=O)N3CCCC3)c2)cc1N[C@H](CO)c1ccccc1 [Example 315, (S)-4-(2-hydroxy-1-phenylethylamino)-6-(3-(pyrrolidine-1-carboxamido)phenylamino)nicotinamide] | 8.00 to 9.00 | < 6.00 | 6.00 to 7.00 |
| NC(=O)c1cnc(Nc2cccc(NC(=O)N3CCCC3)c2)cc1NCc1cccnc1 [Example 320, 4-(pyridin-3-ylmethylamino)-6-(3-(pyrrolidine-1-carboxamido)phenylamino)nicotinamide] | 7.00 to 8.00 | < 6.00 | 6.00 to 7.00 |
| CNC(=O)c1cnc(Nc2cccc(NC(C)=O)c2)cc1NCc1ccccc1 [Example 339, 6-(3-acetamidophenylamino)-4-(benzylamino)-N-methylnicotinamide] | < 6.00 | < 6.00 | < 6.00 |
| NC(=O)c1cnc(Nc2ccc(F)c(NC(=O)N3CCC3)c2)cc1NCc1cccnc1 [Example 317, 6-(3-(azetidine-1-carboxamido)-4-fluorophenylamino)-4-(pyridin-3-ylmethylamino)nicotinamide] | 7.00 to 8.00 | < 6.00 | < 6.00 |
| CC(=O)Nc1cccc(Nc2ncc(C(N)=O)c(Nc3ccc(NC(=O)CC(F)(F)F)cc3)n2)c1 [Example 303, 2-(3-acetamidophenylamino)-4-(4-(3,3,3-trifluoro-propanamido)phenylamino)pyrimidine-5-carboxamide] | 7.00 to 8.00 |  |  |
| NC(=O)c1cnc(Nc2cccc(NC(=O)N3CCCC3)c2)cc1NCc1cccc(F)c1 [Example 309, 4-(3-fluorobenzylamino)-6-(3-(pyrrolidine-1-carboxamido)phenylamino)nicotinamide] | 8.00 to 9.00 | 6.00 to 7.00 | 7.00 to 8.00 |
| NC(=O)c1cnc(Nc2cccc(NC(=O)N3CC[C@@H](F)C3)c2)nc1NCc1ccccc1F [Example 289, (R)-4-(2-fluorobenzylamino)-2-(3-(3-fluoropyrrolidine-1-carboxamido)phenylamino)pyrimidine-5-carboxamide] | 7.00 to 8.00 |  |  |
| CC(=O)Nc1cccc(Nc2ncc(C(N)=O)c(Nc3ccc(NC(=O)C4(C#N)CC4)cc3)n2)c1 [Example 302, 2-(3-acetamidophenylamino)-4-(4-(1-cyanocyclopropane-carboxamido)phenylamino)pyrimidine-5-carboxamide] | 7.00 to 8.00 |  |  |
| NC(=O)c1cnc(Nc2cccc(NC(=O)Cc3cccnc3)c2)nc1NCc1ccccc1F [Example 297, 4-(2-fluorobenzylamino)-2-(3-(2-(pyridin-3-yl)acetamido)-phenylamino)pyrimidine-5-carboxamide] | 8.00 to 9.00 |  |  |
| CC(=O)Nc1cccc(Nc2ncc(C(N)=O)c(NCC3CCCC3)n2)c1 [Example 280, 2-(3-acetamidophenylamino)-4-(cyclopentylmethylamino)pyrimidine-5-carboxamide] | > 9.00 |  |  |
| NC(=O)c1cnc(Nc2cccc(NC(=O)c3cccc(O)n3)c2)nc1NCc1ccccc1F [Example 298, 4-(2-fluorobenzylamino)-2-(3-(6-hydroxypicolinamido)-phenylamino)pyrimidine-5-carboxamide] | 8.00 to 9.00 |  |  |
| NC(=O)c1cnc(Nc2cccc(NC(=O)Cc3ccncc3)c2)nc1NCc1ccccc1F [Example 299, 4-(2-fluorobenzylamino)-2-(3-(2-(pyridin-4-yl)acetamido)-phenylamino)pyrimidine-5-carboxamide] | > 9.00 |  |  |
| NC(=O)c1cnc(Nc2cccc(NC(=O)c3cccnc3)c2)nc1NCc1ccccc1F [Example 296, 4-(2-fluorobenzylamino)-2-(3-(nicotinamido)-phenylamino)pyrimidine-5-carboxamide] | > 9.00 |  |  |
| NC(=O)c1cnc(Nc2cccc(NC(=O)c3ccccn3)c2)nc1NCc1ccccc1F [Example 295, 4-(2-fluorobenzylamino)-2-(3-(picolinamido)-phenylamino)pyrimidine-5-carboxamide] | 7.00 to 8.00 |  |  |
| NC(=O)c1cnc(Nc2cccc(NC(=O)N3CCCC3)c2)nc1NCC1CCCC1 [Example 281] | 6.00 to 7.00 |  |  |
| NC(=O)c1cnc(Nc2cccc(NC(=O)N3CC[C@@H](F)C3)c2)nc1NCc1ccccc1 [Example 283, (R)-4-(benzylamino)-2-(3-(3-fluoropyrrolidine-1-carboxamido)phenylamino)pyrimidine-5-carboxamide] | > 9.00 |  |  |
| NC(=O)c1cnc(Nc2cccc(NC(=O)Cc3ccccn3)c2)nc1NCc1ccccc1F [Example 300, 4-(2-fluorobenzylamino)-2-(3-(2-(pyridin-2-yl)acetamido)-phenylamino)pyrimidine-5-carboxamide] | > 9.00 |  |  |
